Reference: DBAASP
Converted amounts (≈) assume the structure as drawn.

What was measured:
Test in all cases: ≥ marks a high value that may be exact or a test limit, other limits are often not marked, values filed in µg/mL are converted to µM
[1] = tested on: Staphylococcus aureus NCTC 6571
[2] = tested on: Salmonella enterica subsp. enterica serovar Salford IMVS 1710
[3] = tested on: Listeria monocytogenes NCTC 7973
[4] = tested on: Bacillus cereus ACM 446
[5] = tested on: Pseudomonas fluorescens
[6] = tested on: Escherichia coli O9
[7] = tested on: Escherichia coli L361
[8] = tested on: Escherichia coli SBS 363
[9] = tested on: Candida albicans MDM8
[10] = tested on: Candida tropicalis IOC 4560
[11] = tested on: Staphylococcus aureus ATCC 29213
[12] = tested on: Bacillus megaterium ATCC 10778
[13] = tested on: Pseudomonas aeruginosa ATCC 27853
[14] = tested on: Micrococcus luteus A270
[15] = tested on: Enterobacter cloacae beta-12
[16] = tested on: Bacillus subtilis ATCC 6633
[17] = tested on: Serratia marcescens ATCC 4112
[18] = tested on: Bacillus subtilis ATCC 23857
[19] = tested on: Escherichia coli NDM-1
[20] = tested on: Klebsiella pneumoniae NDM-1
[21] = tested on: Enterobacter cloacae
[22] = tested on: Citrobacter freundii
[23] = tested on: Morganella morganii
[24] = tested on: Escherichia coli ATCC 25922
[25] = tested on: Enterococcus faecalis
[26] = tested on: Staphylococcus aureus ATCC 1717
[27] = tested on: Klebsiella oxytoca
[28] = tested on: Staphylococcus aureus ATCC 25923
[29] = tested on: Escherichia coli K88
[30] = tested on: Salmonella enterica subsp. enterica serovar Typhimurium ATCC 14028
[31] = tested on: Pseudomonas aeruginosa PAO1
[32] = tested on: Escherichia coli 078
[33] = tested on: Staphylococcus aureus ATCC 43300
[34] = tested on: Bacillus subtilis CMCC 63501
[35] = tested on: Bacillus cereus CGMCC 1.932
[36] = tested on: Escherichia coli UB1005
[37] = tested on: Enterococcus faecalis ATCC 29212
[38] = tested on: Escherichia coli K99
[39] = tested on: Staphylococcus epidermidis ATCC 12228
[40] = tested on: Salmonella typhimurium ATCC 7731
[41] = tested on: Listeria monocytogenes CGMCC 1.1075
[42] = tested on: Acinetobacter baumannii
[43] = tested on: Salmonella enterica subsp. enterica serovar Pullorum ATCC 7913
[44] = tested on: Salmonella enterica subsp. enterica serovar Typhi CMCC 50071
[45] = tested on: Salmonella enterica subsp. enterica serovar Typhimurium C77-31
[46] = tested on: Salmonella enterica subsp. enterica serovar Pullorum C79-13

Compound: CC[C@H](C)[C@H](NC(=O)[C@H](CO)NC(=O)[C@@H]1CCCN1C(=O)[C@H](C)NC(=O)CNC(=O)[C@H](CC(C)C)NC(=O)[C@H](CCCCN)NC(=O)[C@H](CCCCN)NC(=O)[C@H](CCSC)NC(=O)[C@H](CCCN=C(N)N)NC(=O)[C@H](Cc1c[nH]c2ccccc12)NC(=O)[C@H](CCC(N)=O)NC(=O)[C@H](Cc1c[nH]c2ccccc12)NC(=O)[C@H](CCCN=C(N)N)NC(=O)[C@H](CCCN=C(N)N)NC(=O)[C@H](CS)NC(=O)[C@H](CCCCN)NC(=O)[C@@H](N)Cc1ccccc1)C(=O)N[C@H](C(=O)N[C@@H](CS)C(=O)N[C@H](C(=O)N[C@@H](CCCN=C(N)N)C(=O)N[C@@H](CCCN=C(N)N)C(=O)N[C@@H](C)C(=O)N[C@@H](Cc1ccccc1)C(=O)N[C@@H](C)C(=O)O)C(C)C)[C@@H](C)O [FKCRRWQWRMKKLGAPSITCVRRAFA]
- MIC [1]: 6 µM (≈ 19.2 µg/mL)
- MIC [2]: 4 µM (≈ 12.8 µg/mL)
- MIC [3]: 4 µM (≈ 12.8 µg/mL)
- MIC [4]: 8 µM (≈ 25.6 µg/mL)
- MIC [5]: 6 µM (≈ 19.2 µg/mL)
- MIC [6]: 8 µM (≈ 25.6 µg/mL)
- MIC [7]: 4 µM (≈ 12.8 µg/mL)

Compound: CC(C)C[C@H](NC(=O)[C@H](C)NC(=O)CNC(=O)[C@H](CC(C)C)NC(=O)[C@@H](N)Cc1ccccc1)C(=O)N[C@@H](Cc1c[nH]c2ccccc12)C(=O)N[C@@H](CCCN=C(N)N)C(=O)N[C@H](C(=O)N[C@@H](C)C(=O)N[C@@H](CCCCN)C(=O)N[C@@H](CO)C(=O)N[C@H](C(=O)N[C@@H](Cc1ccccc1)C(N)=O)C(C)C)C(C)C [FLGALWRVAKSVF]
- MIC [8]: 1.6 µM (≈ 2.39 µg/mL)
- MIC [9]: 1.6 µM (≈ 2.39 µg/mL)
- MIC [10]: 1.6 µM (≈ 2.39 µg/mL)
- MIC [11]: 1.6 µM (≈ 2.39 µg/mL)
- MIC [12]: 0.8 µM (≈ 1.19 µg/mL)
- MIC [13]: 6.3 µM (≈ 9.4 µg/mL)
- MIC [14]: 1.6 µM (≈ 2.39 µg/mL)
- MIC [15]: 6.3 µM (≈ 9.4 µg/mL)
- MIC [16]: 0.8 µM (≈ 1.19 µg/mL)
- MIC [17]: 0.4 µM (≈ 0.597 µg/mL)

Compound: CC[C@H](C)[C@H](NC(=O)CN)C(=O)N[C@@H](CCCCN)C(=O)N[C@@H](C)C(=O)NCC(=O)N[C@H](C(=O)N[C@H](C(=O)N[C@H](C(=O)N[C@@H](CCCCN)C(=O)N[C@H](C(=O)N[C@@H](CCCCN)C(=O)N[C@@H](CCCCN)C(N)=O)[C@@H](C)CC)[C@@H](C)CC)[C@@H](C)CC)[C@@H](C)CC [GIKAGIIIKIKK]
- MIC [18]: 16 µM (≈ 20.5 µg/mL)
- MIC [19]: 16 µM (≈ 20.5 µg/mL)
- MIC [20]: 22.6 µM (≈ 29 µg/mL)
- MIC [21]: 22.6 µM (≈ 29 µg/mL)
- MIC [22]: 16 µM (≈ 20.5 µg/mL)
- MIC [23]: ≥ 128 µM
- MIC [24]: 16 µM (≈ 20.5 µg/mL)
- MIC [25]: ≥ 64 µM
- MIC [26]: ≥ 128 µM
- MIC [27]: ≥ 32 µM

Compound: CC(C)[C@H](NC(=O)[C@H](CCCN=C(N)N)NC(=O)[C@H](Cc1c[nH]c2ccccc12)NC(=O)[C@H](CCCN=C(N)N)NC(=O)[C@H](Cc1c[nH]c2ccccc12)NC(=O)[C@H](Cc1c[nH]c2ccccc12)NC(=O)[C@H](Cc1c[nH]c2ccccc12)NC(=O)[C@H](CCCN=C(N)N)NC(=O)[C@H](Cc1c[nH]c2ccccc12)NC(=O)[C@H](CCCN=C(N)N)NC(=O)CN)C(N)=O [GRWRWWWRWRV]
- MIC [28]: 4 µM (≈ 6.92 µg/mL)
- MIC [29]: 1 µM (≈ 1.73 µg/mL)
- MIC [30]: 8 µM (≈ 13.8 µg/mL)
- MIC [31]: 4 µM (≈ 6.92 µg/mL)
- MIC [32]: 4 µM (≈ 6.92 µg/mL)
- MIC [33]: 4 µM (≈ 6.92 µg/mL)
- MIC [34]: 4 µM (≈ 6.92 µg/mL)
- MIC [13]: 8 µM (≈ 13.8 µg/mL)
- MIC [35]: 8 µM (≈ 13.8 µg/mL)
- MIC [36]: 2 µM (≈ 3.46 µg/mL)
- MIC [37]: 2 µM (≈ 3.46 µg/mL)
- MIC [38]: 2 µM (≈ 3.46 µg/mL)
- MIC [39]: 2 µM (≈ 3.46 µg/mL)
- MIC [40]: 8 µM (≈ 13.8 µg/mL)
- MIC [41]: 1 µM (≈ 1.73 µg/mL)
- MIC [42]: 1 µM (≈ 1.73 µg/mL)
- MIC [43]: 4 µM (≈ 6.92 µg/mL)

Compound: NCCCC[C@H](NC(=O)[C@H](Cc1c[nH]c2ccccc12)NC(=O)[C@H](CCCN=C(N)N)NC(=O)[C@H](CCCN=C(N)N)NC(=O)[C@H](Cc1c[nH]c2ccccc12)NC(=O)[C@H](CCC(N)=O)NC(=O)[C@H](Cc1c[nH]c2ccccc12)NC(=O)[C@H](CCCN=C(N)N)NC(=O)[C@H](CCCN=C(N)N)NC(=O)[C@H](Cc1c[nH]c2ccccc12)NC(=O)[C@@H](N)CCCCN)C(N)=O [KWRRWQWRRWK]
- MIC [28]: 32 µM (≈ 56.7 µg/mL)
- MIC [44]: ≥ 128 µM
- MIC [11]: 8 µM (≈ 14.2 µg/mL)
- MIC [30]: 32 µM (≈ 56.7 µg/mL)
- MIC [36]: 8 µM (≈ 14.2 µg/mL)
- MIC [39]: 8 µM (≈ 14.2 µg/mL)
- MIC [45]: 16 µM (≈ 28.3 µg/mL)
- MIC [46]: 16 µM (≈ 28.3 µg/mL)
